Test results reported in ChEMBL document CHEMBL1201862, “PubChem BioAssay data set” (2004).
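Growth conditions: 96-well plates. Treatment: test compound, 48 hours, 5 concentrations. Analysis: linear interpolation between bracketing concentrations; unreached endpoints set to highest concentration. Here, GI50 denotes the concentration required for 50% inhibition of growth.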 The source made the active and inactive calls. No stated cut-off is given here; in the data, active = GI50 up to about 1.1 µM and inactive = higher.

Assays:
Test in all cases: NCI anticancer screen, dose series, 48 h
NCI-H522 = system: NCI-H522
SK-MEL-5 = system: SK-MEL-5
NCI-H460 = system: NCI-H460
SK-OV-3 = system: SK-OV-3
UO-31 = system: UO-31
CAKI-1 = system: CAKI-1
SF-268 = system: SF-268
K562 = system: K562
HCT-15 = system: HCT-15
RPMI-8226 = system: RPMI-8226
UACC-62 = system: UACC-62
HCC 2998 = system: HCC 2998
HCT-116 = system: HCT-116
RXF 393 = system: RXF 393
SNB-78 = system: SNB-78
A549 = system: A549
SNB-75 = system: SNB-75
M14 = system: M14
XF498 = system: XF498
SNB-19 = system: SNB-19
KM12 = system: KM12
MOLT-4 = system: MOLT-4
IGROV-1 = system: IGROV-1
SF-539 = system: SF-539
Malme-3M = system: Malme-3M
SR = system: SR
CCRF-CEM = system: CCRF-CEM
NCI-H226 = system: NCI-H226
HT-29 = system: HT-29
DMS-114 = system: DMS-114
KM-20L2 = system: KM-20L2
OVCAR-5 = system: OVCAR-5
DMS-273 = system: DMS-273
786-0 = system: 786-0
COLO 205 = system: COLO 205
HOP-62 = system: HOP-62
TK-10 = system: TK-10
ACHN = system: ACHN
OVCAR-3 = system: OVCAR-3
M19-MEL = system: M19-MEL
HOP-92 = system: HOP-92
UACC-257 = system: UACC-257
NCI-H23 = system: NCI-H23
EKVX = system: EKVX
SF-295 = system: SF-295
U-251 = system: U-251
SK-MEL-28 = system: SK-MEL-28
LOX IMVI = system: LOX IMVI
SW-620 = system: SW-620
DLD-1 = system: DLD-1
OVCAR-4 = system: OVCAR-4
HL-60 = system: HL-60
MCF7 = system: MCF7
NCI/ADR-RES = system: NCI/ADR-RES
SN12C = system: SN12C
HOP-18 = system: HOP-18
A498 = system: A498
SK-MEL-2 = system: SK-MEL-2
OVCAR-8 = system: OVCAR-8

SMILES: CC(=O)O[C@]1(C(C)=O)CC[C@H]2[C@@H]3C[C@H](C)C4=CC(=O)C=C[C@]4(C)[C@@]3(F)[C@@H](O)C[C@@]21C [FLUOROMETHOLONE ACETATE]
- GI50 (NCI-H522): 62.1 µM (inactive)
- GI50 (SK-MEL-5): 28.9 µM (inactive)
- GI50 (NCI-H460): 76.9 µM (inactive)
- GI50 (SK-OV-3): < 0.01 µM (active)
- GI50 (UO-31): 17.1 µM (inactive)
- GI50 (CAKI-1): 96.4 µM (inactive)
- GI50 (SF-268): 36.2 µM (inactive)
- GI50 (K562): 48.1 µM (inactive)
- GI50 (HCT-15): 19.6 µM
- GI50 (RPMI-8226): 11.9 µM (inactive)
- GI50 (UACC-62): 23.7 µM (inactive)
- GI50 (HCC 2998): > 100 µM (inactive)
- GI50 (HCT-116): > 100 µM (inactive)
- GI50 (RXF 393): 23.7 µM (inactive)
- GI50 (SNB-78): 72.6 µM (inactive)
- GI50 (A549): 43.2 µM (inactive)
- GI50 (SNB-75): > 100 µM (inactive)
- GI50 (M14): 48.3 µM (inactive)
- GI50 (XF498): 38.3 µM (inactive)
- GI50 (SNB-19): > 100 µM (inactive)
- GI50 (KM12): > 100 µM (inactive)
- GI50 (MOLT-4): 25.2 µM (inactive)
- GI50 (IGROV-1): 69.5 µM (inactive)
- GI50 (SF-539): > 100 µM (inactive)
- GI50 (Malme-3M): 24.9 µM (inactive)
- GI50 (SR): 24.7 µM (inactive)
- GI50 (CCRF-CEM): 0.213 µM (active)
- GI50 (NCI-H226): 22.2 µM (inactive)
- GI50 (HT-29): 56.1 µM (inactive)
- GI50 (DMS-114): 53.6 µM (inactive)
- GI50 (KM-20L2): > 100 µM (inactive)
- GI50 (OVCAR-5): 0.149 µM (active)
- GI50 (DMS-273): 41.7 µM (inactive)
- GI50 (786-0): > 100 µM (inactive)
- GI50 (COLO 205): > 100 µM (inactive)
- GI50 (HOP-62): > 100 µM (inactive)
- GI50 (TK-10): 67 µM (inactive)
- GI50 (ACHN): 56.5 µM (inactive)
- GI50 (OVCAR-3): > 100 µM (inactive)
- GI50 (M19-MEL): > 100 µM (inactive)
- GI50 (HOP-92): 85.7 µM (inactive)
- GI50 (UACC-257): 31.1 µM (inactive)
- GI50 (NCI-H23): 63.8 µM (inactive)
- GI50 (EKVX): > 100 µM (inactive)
- GI50 (SF-295): 66.7 µM (inactive)
- GI50 (U-251): 87.7 µM (inactive)
- GI50 (SK-MEL-28): 86.3 µM (inactive)
- GI50 (LOX IMVI): 63.5 µM (inactive)
- GI50 (SW-620): 53.2 µM (inactive)
- GI50 (DLD-1): 94.6 µM (inactive)
- GI50 (OVCAR-4): 27.4 µM (inactive)
- GI50 (HL-60): 37.6 µM (inactive)

SMILES: COc1ccc2[nH]cc(/C=C(/C)c3ccncc3)c2c1
- GI50 (NCI-H522): 2.63 µM (inactive)
- GI50 (SK-MEL-5): 3.1 µM (inactive)
- GI50 (NCI-H460): 3.57 µM (inactive)
- GI50 (SK-OV-3): 4.41 µM (inactive)
- GI50 (UO-31): 23.2 µM (inactive)
- GI50 (CAKI-1): 9.73 µM (inactive)
- GI50 (SF-268): 11.1 µM (inactive)
- GI50 (K562): 2.98 µM (inactive)
- GI50 (HCT-15): 1.19 µM
- GI50 (RPMI-8226): 5.89 µM (inactive)
- GI50 (UACC-62): 5.01 µM (inactive)
- GI50 (MCF7): 3.47 µM (inactive)
- GI50 (NCI/ADR-RES): 2.94 µM (inactive)
- GI50 (SN12C): 8.59 µM (inactive)
- GI50 (HCC 2998): 8.24 µM (inactive)
- GI50 (HOP-18): > 100 µM (inactive)
- GI50 (HCT-116): 4.15 µM (inactive)
- GI50 (A498): 5.07 µM (inactive)
- GI50 (A549): 8.36 µM (inactive)
- GI50 (SNB-75): 2.38 µM (inactive)
- GI50 (XF498): 10.7 µM (inactive)
- GI50 (SNB-19): 50.6 µM (inactive)
- GI50 (KM12): 2.44 µM (inactive)
- GI50 (MOLT-4): 3.62 µM (inactive)
- GI50 (IGROV-1): 13.2 µM (inactive)
- GI50 (SF-539): 8.36 µM (inactive)
- GI50 (CCRF-CEM): 3.13 µM (inactive)
- GI50 (SK-MEL-2): 5.38 µM (inactive)
- GI50 (NCI-H226): 22.6 µM (inactive)
- GI50 (HT-29): 3.25 µM (inactive)
- GI50 (DMS-114): 2.62 µM (inactive)
- GI50 (OVCAR-5): 33.1 µM (inactive)
- GI50 (DMS-273): 1.57 µM (inactive)
- GI50 (COLO 205): 3.1 µM (inactive)
- GI50 (HOP-62): 7.64 µM (inactive)
- GI50 (OVCAR-3): 5.7 µM (inactive)
- GI50 (M19-MEL): 3.72 µM (inactive)
- GI50 (HOP-92): 6.47 µM (inactive)
- GI50 (UACC-257): 7.48 µM (inactive)
- GI50 (NCI-H23): 2.59 µM (inactive)
- GI50 (EKVX): 15.6 µM (inactive)
- GI50 (SF-295): 6.35 µM (inactive)
- GI50 (U-251): 5.3 µM (inactive)
- GI50 (SK-MEL-28): 4.94 µM (inactive)
- GI50 (LOX IMVI): 6.28 µM (inactive)
- GI50 (SW-620): 3.83 µM (inactive)
- GI50 (DLD-1): 4.52 µM (inactive)
- GI50 (OVCAR-4): 65 µM (inactive)
- GI50 (HL-60): 1.44 µM (inactive)
- GI50 (OVCAR-8): 16 µM (inactive)

SMILES: COc1ccc2c([nH]c3cc(O)c(C)cc32)c1CC=C(C)C
- GI50 (SK-OV-3): > 25 µM (inactive)
- GI50 (RPMI-8226): 8.38 µM (inactive)
- GI50 (SN12C): 5.04 µM (inactive)
- GI50 (SNB-78): 11.5 µM (inactive)
- GI50 (XF498): > 25 µM (inactive)
- GI50 (SNB-19): > 25 µM (inactive)
- GI50 (IGROV-1): 23.1 µM (inactive)
- GI50 (SK-MEL-2): > 25 µM (inactive)
- GI50 (NCI-H226): > 25 µM (inactive)
- GI50 (HT-29): 7.24 µM (inactive)
- GI50 (DMS-114): 20.9 µM (inactive)
- GI50 (OVCAR-5): > 25 µM (inactive)
- GI50 (COLO 205): > 25 µM (inactive)
- GI50 (OVCAR-3): 5.32 µM (inactive)
- GI50 (SK-MEL-28): > 25 µM (inactive)
- GI50 (OVCAR-4): 22.5 µM (inactive)
- GI50 (OVCAR-8): 4.42 µM (inactive)
